According to patent publication US12251387B2, “Substituted quinoxalines and benzo[c][1,2,5]oxadiazoles as DNA-PK inhibitors” (Vertex Pharmaceuticals Incorporated, priority 2013, dated 2025):

Molecular target: DNA-PK (Homo sapiens, UniProt P78527)
Test: DNA-PK Inhibition Assay (standard radiometric kinase assay, 33P-ATP, peptide substrate)
Assay type: biochemical
Conditions: radiometric assay, approximately 6 nM DNA-PK, 100 μM ATP, 45 min; fit to competitive tight-binding inhibition; read-out: Ki for the inhibition of DNA-PK
Procedure: Compounds were screened for their ability to inhibit DNA-PK kinase using a standard radiometric assay. Briefly, in this kinase assay the transfer of the terminal ^33P-phosphate in ^33P-ATP to a peptide substrate is interrogated. The assay was carried out in 384-well plates to a final volume of 50 μL per well containing approximately 6 nM DNA-PK, 50 mM HEPES (pH 7.5), 10 mM MgCl2, 25 mM NaCl, 0.01% BSA, 1 mM DTT, 10 μg/mL sheared double-stranded DNA (obtained from Sigma), 0.8 mg/mL DNA-PK peptide (Glu-Pro-Pro-Leu-Ser-Gln-Glu-Ala-Phe-Ala-Asp-Leu-Trp-Lys-Lys-Lys, obtained from American Peptide), and 100 μM ATP. Accordingly, compounds of the invention were dissolved in DMSO to make 10 mM initial stock solutions. Serial dilutions in DMSO were then made to obtain the final solutions for the assay. A 0.75 μL aliquot of DMSO or inhibitor in DMSO was added to each well, followed by the addition of ATP substrate solution containing ^33P-ATP (obtained from Perkin Elmer). The reaction was started by the addition of DNA-PK, peptide and ds-DNA. After 45 min, the reaction was quenched with 25 μL of 5% phosphoric acid. The reaction mixture was transferred to MultiScreen HTS 384-well PH plates (obtained from Millipore), allowed to bind for one hour, and washed three times with 1% phosphoric acid. Following the addition of 50 μL of Ultima Gold™ high efficiency scintillant (obtained from Perkin Elmer), the samples were counted in a Packard TopCount NXT Microplate Scintillation and Luminescence Counter (Packard BioScience). The Ki values were calculated using Microsoft Excel Solver macros to fit the data to the kinetic model for competitive tight-binding inhibition.

Compound | Ki [nM]
Cc1nccc(N[C@H]2CC[C@@H](Oc3cc(N4CC5CC(C4)O5)cc4nccnc34)CC2)n1 [Compound 353] | < 100
c1cc(N[C@H]2CC[C@@H](Oc3cc(N4CCOCC4)cc4nccnc34)CC2)cnn1 [Compound 354] | < 100
c1cnc2c(O[C@H]3C[C@@H](Nc4ncc5c(n4)COC5)C3)cc(N3CCOCC3)cc2n1 [Compound 355] | < 100
c1cnc2c(O[C@H]3C[C@@H](Nc4ncnc5ccoc45)C3)cc(N3CCOCC3)cc2n1 [Compound 356] | < 100
Cc1nccc(N[C@H]2C[C@@H](Oc3cc(N4CCOCC4)cc4nccnc34)C2)n1 [Compound 357] | < 100
CNC(=O)c1ccc(N[C@H]2CC[C@@H](Oc3cc(N4CCOCC4)cc4nccnc34)CC2)cn1 [Compound 358] | < 100
CN1CCC[C@H]1CNc1ncnc(N[C@H]2CC[C@@H](Oc3cc(N4CCOCC4)cc4nccnc34)CC2)c1F [Compound 359] | < 100
CNC(=O)c1cc(N[C@H]2CC[C@@H](Oc3cc(N4CCOCC4)cc4nccnc34)CC2)ncn1 [Compound 360] | < 100
c1cc2c(c(N[C@H]3CC[C@@H](Oc4cc(N5CCOCC5)cc5nccnc45)CC3)n1)CCN2 [Compound 371] | < 100
c1cn2ccnc2c(N[C@H]2CC[C@@H](Oc3cc(N4CCOCC4)cc4nccnc34)CC2)n1 [Compound 372] | < 100
Cc1cncc(N[C@H]2CC[C@@H](Oc3cc(N4CCOCC4)cc4nccnc34)CC2)n1 [Compound 373] | < 100
Clc1cncc(N[C@H]2CC[C@@H](Oc3cc(N4CCOCC4)cc4nccnc34)CC2)n1 [Compound 374] | < 100
COc1ncnc(N[C@H]2CC[C@@H](Oc3cc(N4CCOCC4)cc4nccnc34)CC2)c1F [Compound 376] | < 100
CC(C)(O)CNc1ncnc(N[C@H]2CC[C@@H](Oc3cc(N4CCOCC4)cc4nccnc34)CC2)c1F [Compound 377] | < 100
Fc1c(NC2CCOC2)ncnc1N[C@H]1CC[C@@H](Oc2cc(N3CCOCC3)cc3nccnc23)CC1 (some centres unmarked) [Compound 379] | < 100
CN1CCC(Nc2ncnc(N[C@H]3CC[C@@H](Oc4cc(N5CCOCC5)cc5nccnc45)CC3)c2F)C1 (some centres unmarked) [Compound 381] | < 100
COc1nc(N[C@H]2CC[C@@H](Oc3cc(N4CCOCC4)cc4nccnc34)CC2)c2cc[nH]c2n1 [Compound 383] | < 100
Cn1ccc2c(N[C@H]3CC[C@@H](Oc4cc(N5CCOCC5)cc5nccnc45)CC3)ncnc21 [Compound 384] | < 100
c1cnc2c(O[C@H]3CC[C@@H](Nc4ccnc5[nH]ccc45)CC3)cc(N3CCOCC3)cc2n1 [Compound 385] | < 100

Compound | Ki [nM]
CNc1ncc(OC)c(N[C@H]2CC[C@@H](Oc3cc(N4CCOCC4)cc4nccnc34)CC2)n1 [Compound 387] | < 100
COc1c(N[C@H]2CC[C@@H](Oc3cc(N4CCOCC4)cc4nccnc34)CC2)ncnc1N(C)C [Compound 388] | < 100
COC(=O)[C@H](CC(C)C)NC(=O)N[C@H]1CC[C@@H](Oc2cc(N3CCOCC3)cc3nccnc23)CC1 [Compound 391] | < 100
COc1ncc(F)c(N[C@H]2CC[C@@H](Oc3cc(N4CCOCC4)cc4nccnc34)CC2)n1 [Compound 396] | < 100
Nc1nccc(N[C@H]2CC[C@@H](Oc3cc(N4CCOCC4)cc4nccnc34)CC2)n1 [Compound 397] | < 100
Cc1nccc(N(C)[C@H]2CC[C@@H](Oc3cc(N4CCOCC4)cc4nccnc34)CC2)n1 [Compound 399] | < 100
COc1cnc(Cl)nc1N[C@H]1CC[C@@H](Oc2cc(N3CCOCC3)cc3nccnc23)CC1 [Compound 401] | < 100
Cc1nc2c(c(N[C@H]3CC[C@@H](Oc4cc(N5CCOCC5)cc5nccnc45)CC3)n1)OCC2 [Compound 403] | < 100
COC(=O)c1cc(N[C@H]2CC[C@@H](Oc3cc(N4CCOCC4)cc4nccnc34)CC2)ncc1O [Compound 404] | < 100
CNC(=O)c1cccc(N[C@H]2CC[C@@H](Oc3cc(N4CCOCC4)cc4nccnc34)CC2)n1 [Compound 406] | < 100
COc1cccc(N[C@H]2CC[C@@H](Oc3cc(N4CCOCC4)cc4nccnc34)CC2)c1 [Compound 408] | < 100
Clc1cncnc1N[C@H]1CC[C@@H](Oc2cc(N3CCOCC3)cc3nccnc23)CC1 [Compound 409] | < 100
CCN(CC)C(=O)N[C@H]1CC[C@@H](Oc2cc(N3CCOCC3)cc3nccnc23)CC1 [Compound 413] | < 100
O=C(N[C@H]1CC[C@@H](Oc2cc(N3CCOCC3)cc3nccnc23)CC1)N1CCCC1 [Compound 415] | < 100
FC(F)(F)c1cc(N[C@H]2CC[C@@H](Oc3cc(N4CCOCC4)cc4nccnc34)CC2)ncn1 [Compound 417] | < 100
FC(F)(F)c1cnc(N[C@H]2CC[C@@H](Oc3cc(N4CCOCC4)cc4nccnc34)CC2)nc1 [Compound 418] | < 100
O=C(O)c1cccc(N[C@H]2CC[C@@H](Oc3cc(N4CCOCC4)cc4nccnc34)CC2)n1 [Compound 419] | < 100
CC(C)(C)OC(=O)c1cc(N[C@H]2CC[C@@H](Oc3cc(N4CCOCC4)cc4nccnc34)CC2)ccc1F [Compound 421] | < 100

Further lines, results first:

Ki [nM] | Compound
< 100 | Cc1nccc(N[C@H]2CC[C@@H](Oc3cc(C4=CCOCC4)cc4nccnc34)CC2)n1 [Compound 352]
< 100 | CN(C)C(=O)c1cc(N[C@H]2CC[C@@H](Oc3cc(N4CCOCC4)cc4nccnc34)CC2)ncn1 [Compound 361]
< 100 | CN(C)CCOc1ncnc(N[C@H]2CC[C@@H](Oc3cc(N4CCOCC4)cc4nccnc34)CC2)c1F [Compound 362]
< 100 | CN1CCC(NC(=O)N[C@H]2CC[C@@H](Oc3cc(N4CCOCC4)cc4nccnc34)CC2)CC1 [Compound 363]
< 100 | CC(=O)N1CCC(NC(=O)N[C@H]2CC[C@@H](Oc3cc(N4CCOCC4)cc4nccnc34)CC2)CC1 [Compound 364]
< 100 | FC(F)(F)c1cnc(N[C@H]2CC[C@@H](Oc3cc(N4CCOCC4)cc4nccnc34)CC2)cn1 [Compound 366]
< 100 | Cc1ncc(N)c(N[C@H]2CC[C@@H](Oc3cc(N4CCOCC4)cc4nccnc34)CC2)n1 [Compound 369]
< 100 | c1nc2c(c(N[C@H]3CC[C@@H](Oc4cc(N5CCOCC5)cc5nccnc45)CC3)n1)CCN2 [Compound 370]
< 100 | Fc1c(NC2CCOCC2)ncnc1N[C@H]1CC[C@@H](Oc2cc(N3CCOCC3)cc3nccnc23)CC1 [Compound 378]
< 100 | COCCNc1ncnc(N[C@H]2CC[C@@H](Oc3cc(N4CCOCC4)cc4nccnc34)CC2)c1F [Compound 382]
< 100 | COc1cnc(N(C)C)nc1N[C@H]1CC[C@@H](Oc2cc(N3CCOCC3)cc3nccnc23)CC1 [Compound 386]
< 100 | c1nc(CN2CCCCC2)cc(N[C@H]2CC[C@@H](Oc3cc(N4CCOCC4)cc4nccnc34)CC2)n1 [Compound 389]
< 100 | CN(C)Cc1cc(N[C@H]2CC[C@@H](Oc3cc(N4CCOCC4)cc4nccnc34)CC2)ncn1 [Compound 390]
< 100 | O=C(O)c1ccc(N[C@H]2CC[C@@H](Oc3cc(N4CCOCC4)cc4nccnc34)CC2)cn1 [Compound 393]
< 100 | COC(=O)c1ccc(N[C@H]2CC[C@@H](Oc3cc(N4CCOCC4)cc4nccnc34)CC2)cc1OC [Compound 394]
< 100 | Oc1ncc(F)c(N[C@H]2CC[C@@H](Oc3cc(N4CCOCC4)cc4nccnc34)CC2)n1 [Compound 395]
< 100 | CN1CCc2ncnc(N[C@H]3CC[C@@H](Oc4cc(N5CCOCC5)cc5nccnc45)CC3)c2C1 [Compound 398]
< 100 | CNc1nc(N[C@H]2CC[C@@H](Oc3cc(N4CCOCC4)cc4nccnc34)CC2)cc(=O)[nH]1 [Compound 400]
< 100 | COc1c(Cl)ncnc1N[C@H]1CC[C@@H](Oc2cc(N3CCOCC3)cc3nccnc23)CC1 [Compound 402]
< 100 | CNC(=O)c1cc(N[C@H]2CC[C@@H](Oc3cc(N4CCOCC4)cc4nccnc34)CC2)ccc1F [Compound 405]
< 100 | O=C(NCC1CCCCC1)N[C@H]1CC[C@@H](Oc2cc(N3CCOCC3)cc3nccnc23)CC1 [Compound 410]
< 100 | CN(C)C(=O)N[C@H]1CC[C@@H](Oc2cc(N3CCOCC3)cc3nccnc23)CC1 [Compound 411]
< 100 | O=C(N[C@H]1CC[C@@H](Oc2cc(N3CCOCC3)cc3nccnc23)CC1)N1CCOCC1 [Compound 412]
< 100 | CN1CCN(C(=O)N[C@H]2CC[C@@H](Oc3cc(N4CCOCC4)cc4nccnc34)CC2)CC1 [Compound 414]
< 100 | O=C(N[C@H]1CC[C@@H](Oc2cc(N3CCOCC3)cc3nccnc23)CC1)N1CCCCC1 [Compound 416]
< 100 | O=C(O)c1cc(N[C@H]2CC[C@@H](Oc3cc(N4CCOCC4)cc4nccnc34)CC2)ccc1F [Compound 420]
< 100 | N#Cc1cncnc1N[C@H]1CC[C@@H](Oc2cc(N3CCOCC3)cc3nccnc23)CC1 [Compound 422]
< 100 | Clc1nc(N[C@H]2CC[C@@H](Oc3cc(N4CCOCC4)cc4nccnc34)CC2)c2cn[nH]c2n1 [Compound 423]
